Experimental data as given in PubChem BioAssay AID2060884 (Molecular Pharmacology Branch, DTP, NCI, 2025).
Each block holds one molecule with its values, some of them ahead of it.

System: NCI-H929 complex spheroids, viability % test/control
Assay: Anticancer human tumor NCI-H929 cell line growth inhibition [RAS];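 also: compound exposure lasted seven days before viability was read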
Conditions: for viability, T/C: stronger effect = lower value
From the text: RAS pathway inhibitors in Combinations in Complex Spheroids
A high-throughput screen of multi-cell type tumor spheroids was designed to identify active combinations of RAS pathway inhibitors and targeted small molecules. Complex spheroids include a stromal component modeled by human endothelial cells (HUVEC) and fibroblasts modeled by human mesenchymal stem cells (MSCs). The concentration ranges selected for each drug and investigational agent were based upon clinically achievable concentrations if the clinical Cmax of the agent was known.
Compounds. The drugs and investigational agents: abemaciclib (NSC768073), cobimetinib (NSC768068), divarasib (GDC6063, NSC841802), docetaxel (NSC628503), GDC-1971 (RLY-1971, NSC841576), gemcitabine (NSC613327), inavolisib (NSC800729), ipatasertib (NSC767898), KB-0742 (NSC834161), MRTX-1133 (NSC836407), osimertinib (NSC779217), RMC-4630 (NSC839698), RMC-6236 (NSC851965), RMC-6291 (NSC852671), Ro-3306 (NSC812927), sapanisertib (NSC764658), SN-38 (NSC673596), staurosporine (NSC755774), SY5609 (NSC837396), and tovorafenib (DAY101, NSC766906), were obtained from the National Cancer Institute (NCI) Developmental Therapeutics Program Chemical Repository. The FDA-approved anticancer drug set is available from the NCI Developmental Therapeutics Program. […] The stock solutions were prepared in dimethyl sulfoxide (DMSO, Sigma-Aldrich, St. Louis, MO, cat. D2650) at 800-fold the tested concentration and stored at -70 degrees C prior to their use. All drugs and investigational agents were tested over a range starting from a high concentration at or near the clinical Cmax and decreasing in half-log increments. If the clinical Cmax for an agent had not been determined, the highest concentration tested was 10 microM.
Cell Culture. All cells were maintained in an incubator at 37 degrees C and 5% CO2 with 95% humidity. The PDC lines were cultured according to standard operating procedures established by the NCI PDMR. All PDCs were thawed and cultured in Matrigel-coated flasks prepared with a working solution of 1X Ham's F-12 nutrient mix, without supplementation (Invitrogen, Waltham, MA, cat. 11765054), 100 U/mL penicillin-streptomycin (Invitrogen, cat. 15140122), and 2.5% Matrigel (Corning Inc., Corning, NY, cat. 354248) for the first three passages. The 362531-283-R-J2-PDC and 782815-120-R-J1-PDC lines were cultured in 6C/Colon 1B media, which includes advanced DMEM/F-12 (Thermo Fisher Scientific, cat. 12634028), 10 mM HEPES (Thermo Fisher Scientific, cat. 15630080), 1X GlutaMAX supplement (Thermo Fisher Scientific, cat. 35050061), 0.1 mg/mL primocin (InvivoGen, San Diego, CA, cat. ant-pm-2), 10% defined fetal bovine serum, heat inactivated (HyClone Laboratories Inc., Logan, UT, cat. SH30070.03HI), 50% L-WRN conditioned media (ATCC, cat. CRL-3276), 1.25 mM N-Acetyl-L-cysteine (Sigma-Aldrich, cat. A9165), 10 mM nicotinamide (Sigma-Aldrich, cat. N0636), 1X B-27 supplement (Thermo Fisher Scientific, cat. 17504044), 1X N-2 supplement (Thermo Fisher Scientific, cat. 17502048), 50 ng/mL human EGF (Thermo Fisher Scientific, cat. PHG0311), and 10 microM Y-27632 dihydrochloride (Tocris Bioscience, cat. 1254). The K12877-001-R-J1-PDC line was cultured in 6I media, which includes all 6C/Colon 1B media plus 10 ng/mL human FGF-10 (PeproTech, cat. 100-26), 1 ng/mL human FGF-2 (PeproTech, cat. 100-18B), 1 µM prostaglandin E2 (Tocris Bioscience, cat. 2296), […] hydrocortisone (Sigma-Aldrich, cat. H4001), and […] bovine insulin (Sigma-Aldrich, cat. I6634). The K86415-001-R-J1-PDC line was cultured in 6D media, which includes all 6C/Colon 1B media components minus the L-WRN conditioned media. The 485176-168-R4-J1-PDC was cultured in PANC media, which includes all 6C/Colon 1B media plus 100 ng/mL human FGF-10 (PeproTech, cat. 100-26), 500 nM SB-431542 (Selleckchem, cat. S1067), and 10 nM gastrin (Tocris Bioscience, cat. 3006). […]

[1] = curve of first compound, second compound 0.000949 µM
[2] = curve of first compound, second compound 0.003 µM
[3] = curve of first compound, second compound 0.00949 µM
[4] = curve of first compound, second compound 0.03 µM
[5] = curve of first compound, second compound 0.0949 µM
[6] = curve of first compound, second compound 0.3 µM
[7] = second compound 0.000949 µM, first compound 0.000316 µM
[8] = second compound 0.000949 µM, first compound 0.001 µM
[9] = second compound 0.000949 µM, first compound 0.00316 µM
[10] = second compound 0.000949 µM, first compound 0.01 µM
[11] = second compound 0.000949 µM, first compound 0.0316 µM
[12] = second compound 0.000949 µM, first compound 0.1 µM
[13] = second compound 0.003 µM, first compound 0.000316 µM
[14] = second compound 0.003 µM, first compound 0.001 µM
[15] = second compound 0.003 µM, first compound 0.00316 µM
[16] = second compound 0.003 µM, first compound 0.01 µM
[17] = second compound 0.003 µM, first compound 0.0316 µM
[18] = second compound 0.003 µM, first compound 0.1 µM
[19] = second compound 0.00949 µM, first compound 0.000316 µM
[20] = second compound 0.00949 µM, first compound 0.001 µM
[21] = second compound 0.00949 µM, first compound 0.00316 µM
[22] = second compound 0.00949 µM, first compound 0.01 µM
[23] = second compound 0.00949 µM, first compound 0.0316 µM
[24] = second compound 0.00949 µM, first compound 0.1 µM
[25] = second compound 0.03 µM, first compound 0.000316 µM
[26] = second compound 0.03 µM, first compound 0.001 µM
[27] = second compound 0.03 µM, first compound 0.00316 µM
[28] = second compound 0.03 µM, first compound 0.01 µM
[29] = second compound 0.03 µM, first compound 0.0316 µM
[30] = second compound 0.03 µM, first compound 0.1 µM
[31] = second compound 0.0949 µM, first compound 0.000316 µM
[32] = second compound 0.0949 µM, first compound 0.001 µM
[33] = second compound 0.0949 µM, first compound 0.00316 µM
[34] = second compound 0.0949 µM, first compound 0.01 µM
[35] = second compound 0.0949 µM, first compound 0.0316 µM
[36] = second compound 0.0949 µM, first compound 0.1 µM
[37] = second compound 0.3 µM, first compound 0.000316 µM
[38] = second compound 0.3 µM, first compound 0.001 µM
[39] = second compound 0.3 µM, first compound 0.00316 µM
[40] = second compound 0.3 µM, first compound 0.01 µM
[41] = second compound 0.3 µM, first compound 0.0316 µM
[42] = second compound 0.3 µM, first compound 0.1 µM

IC50 [1]: 33.9 nM
IC50 [2]: 38.8 nM
IC50 [3]: 39.4 nM
IC50 [4]: 36.1 nM
IC50 [5]: 29.7 nM
IC50 [6]: 27.1 nM
SMILES: CC(C)n1nc(-c2ccc3oc(N)nc3c2)c2c(N)ncnc21 + CCn1c(-c2cccnc2C(C)OC)c2c3cc(ccc31)N1CCOC(CC(NC(=O)C(C(C)C)N(C)C(=O)C3(F)CCN(C(=O)C#CC(C)(C)N(C)C)CC3)C(=O)N3CCCC(N3)C(=O)OCC(C)(C)C2)C1
viability, T/C [7]: 104%
viability, T/C [8]: 103%
viability, T/C [9]: 107%
viability, T/C [10]: 101%
viability, T/C [11]: 53.1%
viability, T/C [12]: 2.22%
viability, T/C [13]: 105%
viability, T/C [14]: 107%
viability, T/C [15]: 105%
viability, T/C [16]: 98.5%
viability, T/C [17]: 60.3%
viability, T/C [18]: 2.31%
viability, T/C [19]: 101%
viability, T/C [20]: 105%
viability, T/C [21]: 106%
viability, T/C [22]: 99.8%
viability, T/C [23]: 61.4%
viability, T/C [24]: 1.89%
viability, T/C [25]: 97.8%
viability, T/C [26]: 104%
viability, T/C [27]: 106%
viability, T/C [28]: 100%
viability, T/C [29]: 56.2%
viability, T/C [30]: 1.72%
viability, T/C [31]: 98.7%
viability, T/C [32]: 108%
viability, T/C [33]: 108%
viability, T/C [34]: 100%
viability, T/C [35]: 47.2%
viability, T/C [36]: 1.3%
viability, T/C [37]: 102%
viability, T/C [38]: 107%
viability, T/C [39]: 108%
viability, T/C [40]: 99.5%
viability, T/C [41]: 42.4%
viability, T/C [42]: 1.08%

IC50 [1]: 55 nM
IC50 [2]: 55 nM
IC50 [3]: 29.2 nM
IC50 [4]: 2.58 nM
IC50 [5]: < 0.316 nM
IC50 [6]: < 0.316 nM
SMILES: CC(C)n1nc(-c2ccc3oc(N)nc3c2)c2c(N)ncnc21 + CCn1c(-c2cc(N3CCN(C)CC3)cnc2C(C)OC)c2c3cc(ccc31)-c1csc(n1)CC(NC(=O)C1CC1C)C(=O)N1CCCC(N1)C(=O)OCC(C)(C)C2
viability, T/C [7]: 103%
viability, T/C [8]: 101%
viability, T/C [9]: 111%
viability, T/C [10]: 110%
viability, T/C [11]: 93.2%
viability, T/C [12]: 3.1%
viability, T/C [13]: 97.5%
viability, T/C [14]: 95.7%
viability, T/C [15]: 101%
viability, T/C [16]: 114%
viability, T/C [17]: 93%
viability, T/C [18]: 3.74%
viability, T/C [19]: 108%
viability, T/C [20]: 114%
viability, T/C [21]: 119%
viability, T/C [22]: 120%
viability, T/C [23]: 45.1%
viability, T/C [24]: 1.87%
viability, T/C [25]: 74.5%
viability, T/C [26]: 74.2%
viability, T/C [27]: 39.7%
viability, T/C [28]: 26.1%
viability, T/C [29]: 4.36%
viability, T/C [30]: 0.46%
viability, T/C [31]: 7.99%
viability, T/C [32]: 7.3%
viability, T/C [33]: 2.87%
viability, T/C [34]: 1.59%
viability, T/C [35]: 0.69%
viability, T/C [36]: 0.3%
viability, T/C [37]: 3.49%
viability, T/C [38]: 2.63%
viability, T/C [39]: 1.48%
viability, T/C [40]: 0.92%
viability, T/C [41]: 0.47%
viability, T/C [42]: 0.34%

IC50 (curve of compound): > 10000 nM
SMILES: Cc1nc(N2CCC3(CC2)COC(C)C3N)c(CO)nc1Sc1ccnc(N)c1Cl (stereo unspecified)
viability, T/C (compound 0.0316 µM): 110% [middle of 4 runs]
viability, T/C (compound 0.1 µM): 99% [middle of 4 runs]
viability, T/C (compound 0.316 µM): 107% [middle of 4 runs]
viability, T/C (compound 1 µM): 100% [middle of 4 runs]
viability, T/C (compound 3.16 µM): 105% [middle of 4 runs]
viability, T/C (compound 10 µM): 103% [middle of 4 runs]
